For 23 molecules, IC50 results are on record in patent publication US20250145585A1, “HETEROCYCLIC INHIBITORS OF IGF-1R FOR TREATMENT OF DISEASE” (HORIZON THERAPEUTICS IRELAND DAC, priority 2023, published 2025).

T1 sequence (P08069 31-1367): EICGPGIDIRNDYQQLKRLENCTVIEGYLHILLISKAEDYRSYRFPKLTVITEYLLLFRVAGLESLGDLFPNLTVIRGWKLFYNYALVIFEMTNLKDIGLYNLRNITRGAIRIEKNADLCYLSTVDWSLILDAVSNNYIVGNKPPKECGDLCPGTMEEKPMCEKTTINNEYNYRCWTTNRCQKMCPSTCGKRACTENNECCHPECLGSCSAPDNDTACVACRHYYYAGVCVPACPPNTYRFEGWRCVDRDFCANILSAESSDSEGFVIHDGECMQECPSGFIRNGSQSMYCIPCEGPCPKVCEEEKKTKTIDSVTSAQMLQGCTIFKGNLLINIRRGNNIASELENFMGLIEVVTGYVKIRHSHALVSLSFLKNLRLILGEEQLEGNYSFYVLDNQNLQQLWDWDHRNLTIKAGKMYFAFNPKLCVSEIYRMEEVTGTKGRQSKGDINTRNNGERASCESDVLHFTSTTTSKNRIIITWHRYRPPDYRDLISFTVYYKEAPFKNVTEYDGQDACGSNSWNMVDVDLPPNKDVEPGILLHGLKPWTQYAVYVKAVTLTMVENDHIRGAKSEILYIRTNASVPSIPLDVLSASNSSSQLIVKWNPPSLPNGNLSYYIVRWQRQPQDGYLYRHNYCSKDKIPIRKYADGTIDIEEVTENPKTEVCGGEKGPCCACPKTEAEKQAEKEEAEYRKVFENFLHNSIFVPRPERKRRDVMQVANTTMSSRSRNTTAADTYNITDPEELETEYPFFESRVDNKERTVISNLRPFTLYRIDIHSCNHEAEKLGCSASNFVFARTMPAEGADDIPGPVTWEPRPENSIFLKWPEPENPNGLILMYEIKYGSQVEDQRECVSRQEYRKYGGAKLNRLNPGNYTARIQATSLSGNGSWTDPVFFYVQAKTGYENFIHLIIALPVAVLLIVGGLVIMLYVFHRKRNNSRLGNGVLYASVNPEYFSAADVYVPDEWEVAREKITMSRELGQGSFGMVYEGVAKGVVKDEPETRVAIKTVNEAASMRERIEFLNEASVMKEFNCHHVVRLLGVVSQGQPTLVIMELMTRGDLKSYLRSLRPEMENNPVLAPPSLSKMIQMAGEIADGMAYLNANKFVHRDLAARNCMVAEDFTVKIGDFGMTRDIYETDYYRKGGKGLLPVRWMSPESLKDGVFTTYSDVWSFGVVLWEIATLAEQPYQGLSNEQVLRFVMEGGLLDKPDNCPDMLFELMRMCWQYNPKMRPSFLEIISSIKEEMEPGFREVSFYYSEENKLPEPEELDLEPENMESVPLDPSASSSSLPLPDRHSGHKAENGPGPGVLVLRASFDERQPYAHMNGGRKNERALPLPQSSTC

The test addresses T1, IGF-1R (Homo sapiens, UniProt P08069).
T1 construct: expressed in transfected cells
Briefly: Example B-2: IGF-1R Assay (PathHunter cell lines, EC80 agonist challenge, chemiluminescent detection). In kind it is cell-based. Particulars: PathHunter cells, compound 60 minutes at 37° C., EC80 agonist 3 hours; read-out: IC50, Biological Activity against IGF-1R (Table B2). The method, boiled down: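 PathHunter cells were pre-incubated with compound for 60 min at 37° C (1% vehicle), then challenged with EC80 agonist for 3 h at room temperature. Chemiluminescent detection after 1 h gave % inhibition relative to EC80 and vehicle controls, from which IC50 was derived.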
For orientation: IC50 means the point on the concentration scale where inhibition reaches its midpoint. With `CC1(C)C(=O)N(c2ccc(OC(F)(F)F)cc2)C(=O)N1Cc1ccnc2c1CC(=O)N2` [Compound 285, 5,5-dimethyl-1-((2-oxo-2,3-dihydro-1H-pyrrolo[2,3-b]pyridin-4-yl)methyl)-3-(4-(trifluoromethoxy)phenyl) imidazolidine-2,4-dione], the IC50 was in the range of 500 to 2000 nM.

For the molecule `CC(Nc1cc(CN2C(=O)N(c3ccc(C4(C(F)(F)F)CC4)cc3)C(=O)C2(C)C)ccn1)c1cnccn1` (centres unmarked) [Compound 168, 5,5-dimethyl-1-((2-((1-(pyrazin-2-yl)ethyl)amino)pyridin-4-yl)methyl)-3-(4-(1-(trifluoromethyl)cyclopropyl)phenyl) imidazolidine-2,4-dione], the IC50 was ≤ 500 nM.

With `CC1(C)C(=O)N(c2ccc(C3(C(F)(F)F)CC3)cc2)C(=O)N1Cc1ccnc(NS(C)(=O)=O)c1` [Compound 166, N-(4-((5,5-dimethyl-2,4-dioxo-3-(4-(1-(trifluoromethyl)cyclopropyl)phenyl)imidazolidin-1-yl)methyl)pyridin-2-yl)methanesulfonamide], the half-inhibitory concentration (IC50) was in the range of 500 to 2000 nM.

On to `CO[C@H](C)CNc1cc(CN2C(=O)N(c3ccc(S(=O)(=O)C(F)(F)F)cc3)C(=O)C2(C)C)ccn1` [Compound 338, (R)-1-((2-((2-methoxypropyl)amino)pyridin-4-yl)methyl)-5,5-dimethyl-3-(4-((trifluoromethyl)sulfonyl)phenyl) imidazolidine-2,4-dione], for which the IC50 was ≤ 500 nM.

For the molecule `CC1(C)COc2cc(N3C(=O)N(Cc4ccnc5c4CC(=O)N5)C(C)(C)C3=O)ccc21` [Compound 35, 3-(3,3-dimethyl-2,3-dihydrobenzofuran-6-yl)-5,5-dimethyl-1-((2-oxo-2,3-dihydro-1H-pyrrolo[2,3-b]pyridin-4-yl)methyl)imidazolidine-2,4-dione], the IC50 was ≤ 500 nM.

For the molecule `CC1(Nc2cc(CN3C(=O)N(c4ccc(C(C)(C)C#N)cc4)C(=O)C3(C)C)ccn2)CC1` [Compound 155, 2-(4-(4,4-dimethyl-3-((2-((1-methylcyclopropyl)amino)pyridin-4-yl)methyl)-2,5-dioxoimidazolidin-1-yl)phenyl)-2-methylpropanenitrile], the IC50 was ≤ 500 nM.

`CC1(C)C(=O)N(c2ccc(C3(C(F)(F)F)CC3)cc2)C(=O)N1Cc1ccnc(NCc2ccncn2)c1` [Compound 181, 5,5-dimethyl-1-((2-((pyrimidin-4-ylmethyl)amino)pyridin-4-yl)methyl)-3-(4-(1-(trifluoromethyl)cyclopropyl)phenyl) imidazolidine-2,4-dione]: the IC50 was ≤ 500 nM.

Consider `CN1CC2(CCC2)c2ccc(N3C(=O)N(Cc4ccnc(NC5CCOCC5)c4)C(C)(C)C3=O)cc21` [Compound 214, 5,5-dimethyl-3-(1′-methylspiro[cyclobutane-1,3′-indolin]-6′-yl)-1-((2-((tetrahydro-2H-pyran-4-yl)amino)pyridin-4-yl)methyl)imidazolidine-2,4-dione], for which the IC50 was ≤ 500 nM.

As for `COC[C@@H](C)Nc1cc(CN2C(=O)N(c3ccc4c(c3)OCC4(C)C)C(=O)C2(C)C)ccn1` [Compound 198, (R)-3-(3,3-dimethyl-2,3-dihydrobenzofuran-6-yl)-1-((2-((1-methoxypropan-2-yl)amino)pyridin-4-yl)methyl)-5,5-dimethylimidazolidine-2,4-dione], the 50% inhibitory concentration (IC50) was ≤ 500 nM.

With `Cn1nc(C(C)(C)C)cc1N1C(=O)N(Cc2ccnc3[nH]ccc23)C(C)(C)C1=O` [Compound 42, 1-((1H-pyrrolo[2,3-b]pyridin-4-yl)methyl)-3-(3-(tert-butyl)-1-methyl-1H-pyrazol-5-yl)-5,5-dimethylimidazolidine-2,4-dione], the IC50 was > 10000 nM.

On to `CC(C)(C#N)c1ccc(N2C(=O)N(Cc3ccnc(N[C@H]4CCOC4)c3)C(C)(C)C2=O)cc1` [Compound 152, (S)-2-(4-(4,4-dimethyl-2,5-dioxo-3-((2-((tetrahydrofuran-3-yl)amino)pyridin-4-yl)methyl)imidazolidin-1-yl)phenyl)-2-methylpropanenitrile], for which the IC50 lay within 500 to 2000 nM.

`CC(CS(C)(=O)=O)Nc1cc(CN2C(=O)N(c3ccc(C4(C(F)(F)F)CC4)cc3)C(=O)C2(C)C)ccn1` (centres unmarked) [Compound 140, 5,5-dimethyl-1-((2-((1-(methylsulfonyl)propan-2-yl)amino)pyridin-4-yl)methyl)-3-(4-(1-(trifluoromethyl)cyclopropyl)phenyl) imidazolidine-2,4-dione]: the IC50 was in the range of 500 to 2000 nM.

For the molecule `CC1(C)C(=O)N(c2ccc(OC(F)(F)F)c(F)c2)C(=O)N1Cc1ccnc2c1CC(=O)N2` [Compound 286, 3-(3-fluoro-4-(trifluoromethoxy)phenyl)-5,5-dimethyl-1-((2-oxo-2,3-dihydro-1H-pyrrolo[2,3-b]pyridin-4-yl)methyl)imidazolidine-2,4-dione], the IC50 is 2000 to 10000 nM.

As for `C[C@@H](Nc1cc(CN2C(=O)N(c3ccc(S(=O)(=O)C(F)(F)F)cc3)C(=O)C2(C)C)ccn1)[C@H]1CCCO1` [Compound 342, 5,5-dimethyl-1-((2-(((R)-1-((R)-tetrahydrofuran-2-yl)ethyl)amino)pyridin-4-yl)methyl)-3-(4-((trifluoromethyl)sulfonyl)phenyl) imidazolidine-2,4-dione], the IC50 is 2000 to 10000 nM.

As to `CC1(C)CN(S(C)(=O)=O)c2cc(N3C(=O)N(Cc4ccnc(NCc5cc[nH]n5)c4)C(C)(C)C3=O)ccc21` [Compound 245, 1-((2-(((1H-pyrazol-3-yl)methyl)amino)pyridin-4-yl)methyl)-3-(3,3-dimethyl-1-(methylsulfonyl)indolin-6-yl)-5,5-dimethylimidazolidine-2,4-dione], the IC50 is ≤ 500 nM.

For `CC(C)c1ccc(N2C(=O)N(Cc3ccnc4c3CC(=O)N4)C(C)(C)C2=O)cc1C#N` [Compound 68, 5-(4,4-dimethyl-2,5-dioxo-3-((2-oxo-2,3-dihydro-1H-pyrrolo[2,3-b]pyridin-4-yl)methyl)imidazolidin-1-yl)-2-isopropylbenzonitrile], the IC50 lay within 500 to 2000 nM.

Turning to `CC1(C)C(=O)N(c2ccc(C3(C(F)(F)F)CC3)cc2)C(=O)N1Cc1ccnc(NCc2cc[nH]n2)c1` [Compound 184, 1-((2-(((1H-pyrazol-3-yl)methyl)amino)pyridin-4-yl)methyl)-5,5-dimethyl-3-(4-(1-(trifluoromethyl)cyclopropyl)phenyl) imidazolidine-2,4-dione], the half-maximal inhibitory concentration (IC50) is ≤ 500 nM.

Take `COCCS(=O)(=O)N1CC(C)(C)c2ccc(N3C(=O)N(Cc4ccnc(NC5CCOCC5)c4)C(C)(C)C3=O)cc21` [Compound 228, 3-(1-((2-methoxyethyl)sulfonyl)-3,3-dimethylindolin-6-yl)-5,5-dimethyl-1-((2-((tetrahydro-2H-pyran-4-yl)amino)pyridin-4-yl)methyl)imidazolidine-2,4-dione]: the IC50 was ≤ 500 nM.

Consider `CC(C)c1ccc(N2C(=O)N(Cc3ccnc(N[C@H]4[C@@H]5COC[C@@H]54)c3)C(C)(C)C2=O)cc1OCCN(C)C` [Compound 280, 1-((2-(((1R,5S,6r)-3-oxabicyclo[3.1,0]hexan-6-yl)amino)pyridin-4-yl)methyl)-3-(3-(2-(dimethylamino)ethoxy)-4-isopropylphenyl)-5,5-dimethylimidazolidine-2,4-dione], for which the IC50 is ≤ 500 nM.

On to `CNS(=O)(=O)c1ccc(CNc2cc(CN3C(=O)N(c4ccc(C5(C(F)(F)F)CC5)cc4)C(=O)C3(C)C)ccn2)cc1` [Compound 172, 4-(((4-((5,5-dimethyl-2,4-dioxo-3-(4-(1-(trifluoromethyl)cyclopropyl)phenyl)imidazolidin-1-yl)methyl)pyridin-2-yl)amino)methyl)-N-methylbenzenesulfonamide], for which the IC50 was ≤ 500 nM.

Take `CC(Nc1cc(CN2C(=O)N(c3ccc4c(c3)N(S(C)(=O)=O)CC43CCC3)C(=O)C2(C)C)ccn1)C1CCOC1` (centres unmarked) [Compound 225, 5,5-dimethyl-3-(1′-(methylsulfonyl)spiro[cyclobutane-1,3′-indolin]-6′-yl)-1-((2-((1-(tetrahydrofuran-3-yl)ethyl)amino)pyridin-4-yl)methyl)imidazolidine-2,4-dione]: the IC50 was ≤ 500 nM.

Regarding `CC1(C)C(=O)N(c2ccc(C3(C(F)(F)F)CC3)cc2)C(=O)N1Cc1ccnc(NCC2(C#N)CC2)c1` [Compound 160, 1-(((4-((5,5-dimethyl-2,4-dioxo-3-(4-(1-(trifluoromethyl)cyclopropyl)phenyl)imidazolidin-1-yl)methyl)pyridin-2-yl)amino)methyl)cyclopropane-1-carbonitrile], the 50% inhibitory concentration (IC50) is ≤ 500 nM.

For the molecule `CC1(C)C(=O)N(c2ccc(S(=O)(=O)C(F)(F)F)cc2)C(=O)N1Cc1ccnc(NC2CCNC(=O)C2)c1` (centres unmarked) [Compound 333, 5,5-dimethyl-1-((2-((2-oxopiperidin-4-yl)amino)pyridin-4-yl)methyl)-3-(4-((trifluoromethyl)sulfonyl)phenyl) imidazolidine-2,4-dione], the IC50 is 500 to 2000 nM.
